Measurements as given in PMC7244497 (Scientific Reports, 2020).

Experiments:
[1] = cited from earlier work
[2] = test system: DOP receptor dephosphorylation at T361 and S363; assay: DOP receptor dephosphorylation after DPDPE washout with phosphatase inhibitors (Western blot, HEK293 cells); format: cell-based, human; details: HEK293 HA-hDOP; inhibitor preincubated 30 min, 1 µM DPDPE 10 min, citrate washout, 0-40 min

In the case of `CCN(CC)C(=O)c1ccc(C2=CC3(CCNCC3)Oc3cccc(O)c32)cc1` [ADL5859, N,N-diethyl-4-(5-hydroxyspiro[chromene-2,4′-piperidine]-4-yl)benzamide], the “Effective dose in most behavior assays” value [1] is listed as 10 mg/kg.

For `CCN(CC)C(=O)c1ccc(C(=C2CCNCC2)c2ccccc2)cc1` [AR-M1000390, N,N-Diethyl-4-(phenylpiperidin-4-ylidenemethyl)benzamide], the “Effective dose in most behavior assays” value [1] is given as 10 mg/kg.

In the case of `COC[C@@H]([C@H](O)[C@H](O)C(=O)NCC[C@H](C)c1nc(/C=C/C[C@@H]2O[C@]3(C[C@@H](O)[C@@H]2C)O[C@H]([C@H](C[C@H](O)[C@H](C)[C@H](O)[C@H](C)/C=C(C)/C(C)=C/C=C/C(C)=C\C#N)OC)[C@H](OP(=O)(O)O)C3(C)C)co1)N(C)C` [calyculin A], the “Effect on DOP receptor dephosphorylation at T361 and S363” value [2] is reported as “inhibited in a concentration-dependent manner only by calyculin A”.
